# Where two headings read alike, the source gives them in different places.
# Columns and labels:
# [1] = test system: ovarian cancer cells isolated from ascites and ovarian cancer cell lines CP70 and A2780; test: Cell viability (CellTiter) of ovarian cancer cells with or without dehydroequol pre-treatment; format: cell-based
# Procedure: (§1) The in vitro studies were performed using ovarian cancer cells isolated from ascites using an immunomagnetic assay and established ovarian cancer cell lines CP70 and A2780. Cell viability was determined using CellTiter©. Apoptosis was evaluated using Hoechst 33342 dye. The in vivo effect was tested by injecting CP70 subcutaneously into nude mice. Animals received daily oral administration of dehydroequol, 10 or 20 mg/kg for 8 days alone or in combination with cisplatin 0.5 mg/kg. After 8 days the animals were sacrificed and the tumour volume was measured.
# [2] = test system: carboplatin and paclitaxel resistant cells; test: Decrease in cell viability in chemoresistant cells; format: cell-based
# Procedure: as §1
# caspase 3 = test: Western blot analysis of resistant ovarian cancer cells; format: cell-based; conditions: chemoresistant cells, only after pre-treatment with dehydroequol (FIG. 5)
# Excerpt: FIG. 5 represents a Western Blot analysis of carboplatin or paclitaxel treatment resistant ovarian cancer CP70 cells with and without dehydroequol pre-treatment.
# Additionally, the active form of caspase 3 in chemoresistant cells was not detected.
# CP70 [3] = test: Cell viability (CellTiter), concurrent dehydroequol and cisplatin; format: cell-based
# Procedure: (§2) The effect of a composition comprising the platinum complex cisplatin and the isoflavonoid compound dehydroequol (compound No. 12) on various cancer cell lines was assessed on culture plates. Cell viability was determined using CellTiter©. Apoptosis was evaluated using Hoechst 33342 dye.
# A2780 = test: as above; format: cell-based
# Procedure: as §2
# HPAC = test: as above; format: cell-based
# Procedure: as §2
# DU145 = test: as above; format: cell-based
# Procedure: as §2
# PC3 = test: as above; format: cell-based
# Procedure: as §2
# [4] = test system: paclitaxel resistant cell line, R182; test: Cell viability (CellTiter), paclitaxel resistant cell line; format: cell-based; conditions: R182, no pre-treatment (FIG. 2)
# Procedure: as §1
# CP70 [5] = test: In vivo CP70 tumour injected subcutaneously into nude mice; conditions: cisplatin 0.5 mg/kg alone
# Procedure: as §1
smiles,measurement,setting,value
N.N.O=C([O-])C1(C(=O)[O-])CCC1.[Pt+2] [carboplatin],IC50 for carboplatin after dehydroequol pre-treatment,"[1]; pre-treatment with dehydroequol (10 μg/ml) for two hours, +/−0.5 (FIG. 3)",0.5 µg/mL
same,decrease in cell viability,[2]; pre-treatment (2 h) with DHE followed by the agent for 48 h,30%
Oc1ccc(C2=Cc3ccc(O)cc3OC2)cc1 [dehydroequol],Caspase 3 activation,caspase 3,Caspase 3 activation was observed
same,decrease in cell viability,[2]; pre-treatment alone for 2 h,20%
same,decrease in cell viability,[2]; treatment for 48 hours,60-80%
same,IC50,CP70 [3],1500 nM
same,IC50,"A2780; Homo sapiens, A2780",1700 nM
same,IC50,HPAC; Homo sapiens,50000 nM
same,IC50,"DU145; Homo sapiens, DU-145",5900 nM
same,IC50,"PC3; Homo sapiens, PC-3",9600 nM
CC(=O)O[C@H]1C(=O)[C@@]2(C)[C@H]([C@H](OC(=O)c3ccccc3)[C@]3(O)C[C@H](OC(=O)[C@H](O)[C@@H](NC(=O)c4ccccc4)c4ccccc4)C(C)=C1C3(C)C)[C@]1(OC(C)=O)CO[C@@H]1C[C@@H]2O [paclitaxel],IC50,[4],> 2000 nM
same,IC50,"[1]; Homo sapiens, A2780, pre-treatment with dehydroequol (10 μg/ml) for two hours (FIG. 4), read-out: IC50 for paclitaxel after dehydroequol pre-treatment",50 nM
"N.N.[Cl][Pt][Cl] [Cisplatin, cis-diamminedichloroplatinum (II)]",effect on tumour size,CP70 [5],no effect
same,IC50,"CP70 [3]; CP70, co-incubation with 2 uM dehydroequol, read-out: Cisplatin IC50 +2 uM dehydroequol",100 nM
same,IC50,"CP70 [3]; CP70, single agent, read-out: IC50",10400 nM
same,IC50,"A2780; A2780, co-incubation with 2 uM dehydroequol, read-out: Cisplatin IC50 +2 uM dehydroequol",< 1 nM
same,IC50,"A2780; A2780, single agent, read-out: IC50",3000 nM
same,IC50,"HPAC; co-incubation with 2 uM dehydroequol, read-out: Cisplatin IC50 +2 uM dehydroequol",7700 nM
same,IC50,"HPAC; single agent, read-out: IC50",34500 nM
same,IC50,"DU145; DU145, co-incubation with 2 uM dehydroequol, read-out: Cisplatin IC50 +2 uM dehydroequol",100 nM
same,IC50,"DU145; DU145, single agent, read-out: IC50",5000 nM
same,IC50,"PC3; PC3, co-incubation with 2 uM dehydroequol, read-out: Cisplatin IC50 +2 uM dehydroequol",< 1 nM
same,IC50,"PC3; PC3, single agent, read-out: IC50",400 nM
